Among the data in publication PMC4635624, “In vitro and in vivo single-agent efficacy of checkpoint kinase inhibition in acute lymphoblastic leukemia” (Journal of Hematology & Oncology, 2015) are cell viability, PARP-1 cleavage and c-Jun protein levels values, retold here.

Holding throughout (assay type): cell-based, human
The subject of experiment [1] is normal bone marrow mononuclear cells. Briefly: Viability of primary cultures of normal cells. The settings on record: 24 h of exposure at 100, 500, and 1000 nM. How it is done:
The efficacy of PF-00477736 was confirmed in primary blast cells from 14 newly diagnosed cases including ten BCR-ABL1-positive (71 %) cases and four BCR-ABL1-negative ALL cases (29 %). Leukemic cells were incubated with increasing concentrations of drug (0.1, 0.5, and 1 μM) for 24 h.
Normal bone marrow progenitors were harvested from bone marrow aspirations performed in lymphoma patients undergoing initial staging procedures, which then resulted negative for lymphoma infiltration. Normal peripheral blood progenitors were harvested from healthy donors.
In order to assess the cell viability after treatment with PF-00477736 (Pfizer), ALL cell lines were seeded in 96-well plates at 50,000 cell/100 μl/well with increasing concentrations of drug (0.005–2 μM) for 24 and 48 h and incubated at 37 °C. Cell viability was assessed by adding WST-1 reagent (Roche Applied Science, Basel, Switzerland) to the culture medium at 1:10 dilution. Cells were incubated at 37 °C, and the optical density was measured by microplate ELISA reader at λ = 450 after 3 h. […] In ex-vivo primary leukemia cells, the effects on cell viability were assessed by counting viable and non-viable cell numbers by the trypan blue dye exclusion method. […] Cellular viability was calculated as a percentage of the viable cells compared to the untreated controls (DMSO 0.1 %).

A further experiment relates to leukemia cell lines. Briefly: PARP-1 cleavage by Western blot. To be noted: 24 h of drug exposure; undetectable with DMSO 0.1 %. How it is done:
In order to assess whether cytotoxicity was correlated to increased susceptibility to apoptosis, B-/T-ALL cell lines were incubated with increasing concentrations of drug (0.1, 0.5, and 1 μM and 0.05, 0.1, and 0.2 μM only for BV-173 and RPMI-8402, respectively) for 24 and 48 h. […] The induction of apoptosis by PF-00477736 was also assessed by the detection of poly (ADP-ribose) polymerase (PARP) cleavage by Western blot analysis.
To gain insight into the molecular mechanisms responsible for cell death following treatment, functional analyses by Western blot were performed. Leukemia cell lines were plated in six-well plates at 500,000 cell/1 ml with increasing concentrations of drug for 24 h and incubated at 37 °C. After the treatment, the cells were collected and lysate using a specific buffer made of KH2PO4 0.1 M (pH 7.5), Igepal 1 % (NP-40), β-glicerofosfato 0.1 mM, and complete protease inhibitor cocktail 1× (Roche Diagnostics). […] Finally, all these antibodies were detected using the enhanced chemiluminescence kit ECL (GE) and the compact darkroom ChemiDoc-It (UVP).

Experiment [2] concerns c-Jun in B-/T-ALL cell lines. Kind of experiment: Western blot against c-Jun. The settings on record: after treatment; response heterogeneous in T-ALL cell lines. The method, then: In order to identify gene expression changes specifically correlated with Chk1 inhibition and to better elucidate the mechanism of action of Chk1 inhibitor, gene expression profiling (GEP) analysis was performed by microarray on treated B/T-ALL cell lines (BV-173, SUP-B15, REH, NALM-6, NALM-19, MOLT-4, RPMI-8402, and CCRF-CEM) and on their untreated counterparts (DMSO 0.1 %) after 24 h of drug exposure. […] To identify peculiar critical pathways affected by Chk1 inhibition, the differentially expressed genes were analyzed in terms of biological function using the MetaCore pathway mapping software (GeneGo Inc.) which categorizes genes in pathway maps, Gene Ontology (GO) cellular processes, and cellular and molecular process networks. […] Finally, the three top scored process networks impaired by the treatment with Chk1 inhibitor were as follows: the DNA damage checkpoint, the S phase of cell cycle, and the apoptosis, confirming the specificity of treatment on its target pathways (Additional file 4). […]
To gain insight into the molecular mechanisms responsible for cell death following treatment, functional analyses by Western blot were performed. […] Finally, all these antibodies were detected using the enhanced chemiluminescence kit ECL (GE) and the compact darkroom ChemiDoc-It (UVP).

Structures are written as SMILES.

As to `Cn1cc(-c2[nH]c3cc(NC(=O)[C@H](N)C4CCCCC4)cc4c3c2C=NNC4=O)cn1` [PF-00477736], the cell viability result in experiment [1] is given as “did not reduce viability”. The PARP-1 cleavage result with leukemia cell lines is “PARP-1 cleavage band at 89 kDa was observed”. In addition, the c-Jun protein levels result in experiment [2] is given as “c-Jun protein levels increased in all B-ALL cell lines”.
